The text below walks through data of patent US5734057A, “HIV protease inhibitors and intermediates” (Eli Lilly and Company, priority 1996, dated 1998).

Read-outs that look alike come from different tables or passages of the source.

One assay concerns the target T1, HIV-1 protease (Human immunodeficiency virus type 1 group M subtype B, UniProt P04585).
T1 construct: HIV-1 Protease
As to the kind of experiment: biochemical. The settings on record: for IC50: read-out: Inhibitory Activity, Fluorescence Assay IC50 (converted). As for the experimental part: These compounds may be assayed using two assays: (1) an enzyme inhibition assay, and (2) an antiviral cell culture assay.
This assay is described in detail in published European Patent Application (EPA) 0 526 009, herein incorporated by reference. Using this assay, a number of the compounds, prepared above, were assayed for HIV protease inhibitory activity.
The assay is unable to test compounds at less than a concentration of 0.16 ng/mL.

The test system of another assay is HIV. As to the kind of experiment: Antiviral cell culture assay (XTT viability of HIV-infected cells). The format is cell-based. The source says:
As noted above, the compounds of formula (I) are useful as HIV protease inhibitors and for preparing HIV protease inhibitors. These compounds may be assayed using two assays: (1) an enzyme inhibition assay, and (2) an antiviral cell culture assay.
In addition, the compounds described in the present application may be tested using an antiviral cell culture assay as described in Weislow, O. S., J. of National Cancer Institute, 81(8), pages 577-586 (Apr. 19, 1989) herein incorporated by reference.
This assay compares the viability of HIV-infected cells in a cell culture medium relative to the viability of such cells in the presence of a test compound. The concentration of test compound necessary to inhibit 90% of the virus is then measured using the viability of the cells as an indicator of viral inhibition. This assay is carried out using cell lines that are sensitive to the lyric effects of HIV infection.
Specifically, this assay utilizes the metabolic reduction of a tetrazolium reagent, 2,3-bis[2-methoxy-4-nitro-5-sulfophenyl]-5-[(phenylamino carbonyl]-2H-tetrazolium hydroxide (XTT). In the presence of a viable cell, the tetrazolium reagent, XTT, ms reduced to provide XTT formazan which may be quantified using colorimetric determination (at 450 nm). The intensity of the chromogenic signal is directly proportional to the concentration of the XTT formazan, thus providing a measure of the quantity of viable cells.
The compounds prepared in Examples 9 and 10, above, were tested using this assay.

The mark [1] stands for this setting: concentration that inhibits 50% of the enzyme, assay limit 0.16 ng/mL.
Where [2] appears, read: Human immunodeficiency virus 1, concentration that inhibits 90%.

As usually defined, the IC50 is the concentration that inhibits the measured activity by half. A word on the IC90: it is the point of the concentration-response curve where the effect stands at 90%. Read a low IC90 as greater potency. On to `CC(C)(C)NC(=O)[C@@H]1C[C@@H]2SCC[C@@H]2CN1C[C@@H](O)[C@H](Cc1ccccc1)NC(=O)OCc1ccccc1` [Example 5, N-t-Butyl-octahydro-5[2R-hydroxy-4-phenyl-3S-N(benzyloxycarbonyl)amino-butyl]-(3aR,7aS)-thieno[3,2-c]pyridine-(6S)-carboxamide], for which the IC50 on HIV-1 protease (setting [1]) is 6.3 nM. In the assay with HIV (setting [2]), the IC90 amounted to 2000 nM.
For the compound `CC(C)(C)NC(=O)[C@@H]1C[C@@H]2SCC[C@@H]2CN1C[C@@H](O)[C@H](CSc1ccccc1)NC(=O)OCc1ccccc1` [Example 7, N-t-Butyl-octahydro-5[2R-hydroxy-4-thiophenyl-3R-N(benzyloxycarbonyl)amino-butyl]-(3aR,7aS)-thieno[3,2-c] pyridine-(6S)-carboxamide], at HIV-1 protease, the IC50 was 3.32 nM.
For the compound `Cc1c(O)cccc1C(=O)N[C@@H](CSc1ccccc1)[C@H](O)CN1C[C@H]2CCS[C@H]2C[C@H]1C(=O)NC(C)(C)C` [Example 9, N-t-Butyl-octahydro-5[2R-hydroxy-3R-N(2'-methyl-3'-hydroxyphenylcarbonyl)amino-4-phenylthio-butyl]-(3aR,7aS)-thieno[3,2-c] pyridine-(6S)-carboxamide], at HIV-1 protease (setting [1]), the IC50 was 0.315 nM. This compound also came in with an IC90 in the assay with HIV (setting [2]) of 17 nM.
Take `Cc1c(O)cccc1C(=O)N[C@@H](CSc1ccccc1)[C@H](O)CN1C[C@H]2CCS[C@H]2C[C@H]1C(=O)NC(C)(C)C` [Example 10, N-t-Butyl-octahydro-5[2R-hydroxy-3R-N(2'-methyl-3'-hydroxyphenylcarbonyl)amino-4-phenylthio-butyl]-(3aR,7aS)-thieno[3,2-c] pyridine-(6S)-carboxamide methanesulfonate]: at HIV-1 protease (at 0.16 ng/mL, read-out: % inhibition at stated concentration (IC74 (0.16))), the inhibition at 0.00016 µg/mL was found to be 74%. The IC90 in the assay on HIV (concentration that inhibits 90%) came to 10 nM.
